In the NIST ThermoML archive (doi:10.1021/je060097q):

Conditions: Capillary rise

COCOC [dimethoxymethane]
Conditions	surface tension liquid-gas [mN/m]
238.07 K	28.12
243.12 K	27.42
248.13 K	26.76
253.12 K	26.21
258.12 K	25.63
263.08 K	24.83
268.09 K	24.23
273.09 K	23.63
278.08 K	23.11
283.07 K	22.39
288.08 K	21.75
293.05 K	21.02
298.04 K	20.36
303.16 K	19.7
308.15 K	18.99
313.16 K	18.4
318.16 K	17.67
323.15 K	17.16
328.13 K	16.56
333.16 K	15.88
338.16 K	15.32
343.15 K	14.65
348.14 K	14.02
353.15 K	13.34
358.15 K	12.83
363.15 K	12.27
368.15 K	11.58
373.15 K	11.01
378.15 K	10.36
383.13 K	9.778
388.14 K	9.175

COC(C)(C)C [2-methoxy-2-methylpropane]
Conditions	surface tension liquid-gas [mN/m]
243.08 K	24.08
248.01 K	23.43
253.11 K	22.84
258.13 K	22.32
263.1 K	21.65
268.13 K	20.97
273.16 K	20.52
278.11 K	19.99
283.12 K	19.35
288.13 K	18.96
293.07 K	18.53
298.08 K	17.75
303.11 K	17.23
308.15 K	16.71
313.16 K	16.25
318.11 K	15.61
323.16 K	15.09
328.14 K	14.52
333.15 K	14.02
338.16 K	13.56
343.13 K	13.06
348.13 K	12.5
353.13 K	11.94
358.15 K	11.55
363.13 K	10.92
368.13 K	10.53
373.12 K	9.946
378.12 K	9.534
383.12 K	8.956
388.14 K	8.518
393.13 K	8.006
